Values quoted from earlier work in PubChem BioAssay AID1259409 (Chemical Carcinogenesis Research Information System (CCRIS), 2018).

Tested on: rodent chemically induced tumor inhibition, incidence and multiplicity
Assay: CCRIS tumor inhibitor studies
Settings: Carcinogen: 7,12-DIMETHYLBENZ[A]ANTHRACENE; 57-97-6; Dose [Inhibitor]: 0; 250 UG 3/WK APPLIED 30 MIN PRIOR TO EACH PROMOTER DOSE FOR 140 D (STUDY DURATION: 140 D); Route [Inhibitor]: DERMAL; Species: MOUSE; Strain/Sex: SWISS/FEMALE; Target Tissue: Type of Lesion: SKIN: TUMOR; Dose [Carcinogen]: 200 NMOL IN 100 µL ACETONE ONCE; Promoter: 12-O-TETRADECANOYLPHORBOL-13-ACETATE; 16561-29-8

CCC(C)C1NC(=O)C(C(C)=O)=C1O (stereo unspecified)
tumour outcome (control, treated, inhibition, significance): 100%, 70%, 30%, not calculated
